Assay results reported in ChEMBL document CHEMBL4406836, “The design of a cell-selective fowlicidin-1-derived peptide with both antimicrobial and anti-inflammatory activities” (Eur J Med Chem, 2019).
≈ marks a conversion by molar mass, not a printed value. Calls of active or inactive are those of the source. The calls are words filed in the database; no cut-off is given here.

Experiments:
Staphylococcus aureus [1] = test: Antibacterial activity against methicillin-resistant Staphylococcus aureus CCARM 3089 assessed as reduction in bacterial growth incubated for 72 hrs by spectrophotometry; format: functional; conditions: CCARM 3089, 72 h
Pseudomonas aeruginosa = test: Antibacterial activity against multidrug-resistant Pseudomonas aeruginosa CCARM 2095 assessed as reduction in bacterial growth incubated for 72 hrs by spectrophotometry; format: functional; conditions: CCARM 2095, 72 h
Staphylococcus aureus [2] = test: Induction of cytoplasmic membrane depolarization in Staphylococcus aureus at 2 times of MIC for a period of 600 sec by DiSC3-5-fluorescence based assay; format: functional, organism-based
Staphylococcus aureus [3] = test: Induction of cytoplasmic membrane depolarization in Staphylococcus aureus at 2 times of MIC within 4 mins by SYTOX green-based assay; format: functional, organism-based
Escherichia coli = test: Induction of membrane integrity disruption in Escherichia coli at 2 times of MIC by propidium iodide staining based flow cytometry relative to control (reference value: 2.97 %); format: functional
Enterococcus faecium = test: Antibacterial activity against vancomycin-resistant Enterococcus faecium ATCC 51559 assessed as reduction in bacterial growth incubated for 18 hrs by spectrophotometry based microtiter broth dilution method; format: functional; conditions: ATCC 51559, 18 h

SMILES | MIC (Staphylococcus aureus [1]) [µM] | MIC (Pseudomonas aeruginosa) [µM] | Activity (Staphylococcus aureus [2]) | Activity (Staphylococcus aureus [3]) | Activity (Escherichia coli) [%] | MIC (Enterococcus faecium) [µM]
O=C(N[C@H](CO)[C@H](O)c1ccc([N+](=O)[O-])cc1)C(Cl)Cl [CHLORAMPHENICOL] | 128 (≈ 41.4 µg/mL) | 1020 (≈ 331 µg/mL) | – | – | – | –
O=C(O)c1cn(C2CC2)c2cc(N3CCNCC3)c(F)cc2c1=O [CIPROFLOXACIN] | 1020 (≈ 339 µg/mL) | 512 (≈ 170 µg/mL) | – | – | – | –
CC[C@H](C)[C@H](NC(=O)CN)C(=O)NCC(=O)N[C@@H](C)C(=O)N[C@H](C(=O)N[C@@H](CC(C)C)C(=O)N[C@@H](CCCCN)C(=O)N[C@H](C(=O)N[C@@H](CC(C)C)C(=O)N[C@H](C(=O)N[C@H](C(=O)NCC(=O)N[C@@H](CC(C)C)C(=O)N1CCC[C@H]1C(=O)N[C@@H](C)C(=O)N[C@@H](CC(C)C)C(=O)N[C@H](C(=O)N[C@@H](CO)C(=O)N[C@@H](Cc1c[nH]c2ccccc12)C(=O)N[C@H](C(=O)N[C@@H](CCCCN)C(=O)N[C@@H](CCCNC(=N)N)C(=O)N[C@@H](CCCCN)C(=O)N[C@@H](CCCNC(=N)N)C(=O)N[C@@H](CCC(N)=O)C(=O)N[C@@H](CCC(N)=O)C(N)=O)[C@@H](C)CC)[C@@H](C)CC)[C@@H](C)O)[C@@H](C)O)C(C)C)C(C)C [MELITTIN] | – | – | Active | Active | 75.38 | 8 (≈ 22.8 µg/mL)
Cc1onc(-c2ccccc2)c1C(=O)N[C@@H]1C(=O)N2[C@@H]1SC(C)(C)[C@@H]2C(=O)O [OXACILLIN] | 512 (≈ 206 µg/mL) | 512 (≈ 206 µg/mL) | – | – | – | –
